Results as given in patent publication US8076455B2, “Guanosine triphosphate (GTP)-binding protein-coupled receptor protein, BG37” (Merck Sharp & Dohme Corp., priority 2000, dated 2011).

How the values were obtained:
Assay type in all cases: cell-based
[1] = biological target: T1, human BG37 (Homo sapiens, UniProt Q8TDU6); test: Assay of intracellular cAMP level (EIA) in human BG37-expressing cells (HEK/hBG37), steroid hormones; settings: steroid hormone at various concentrations, 37° C. for 15 minutes
T1 construct: Human BG37 gene cut out, utilizing the BamHI-EcoRV site, from pCR2.1-BG37ORF was subcloned into the BamHI-EcoRV digested pKT52 vector; expressed in transfected cells
T1 sequence (Q8TDU6 1-330): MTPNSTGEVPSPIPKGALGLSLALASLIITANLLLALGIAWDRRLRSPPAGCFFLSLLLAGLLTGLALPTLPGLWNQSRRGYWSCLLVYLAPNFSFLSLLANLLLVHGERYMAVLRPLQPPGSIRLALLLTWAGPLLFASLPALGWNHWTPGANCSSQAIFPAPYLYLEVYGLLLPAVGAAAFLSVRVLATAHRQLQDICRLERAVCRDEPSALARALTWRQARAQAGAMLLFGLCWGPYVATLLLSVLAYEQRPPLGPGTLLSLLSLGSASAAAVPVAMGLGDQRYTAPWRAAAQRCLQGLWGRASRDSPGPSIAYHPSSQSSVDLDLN
Description: On the day before the measurement of the intracellular cAMP level, cells were re-plated at a cell density of 4×10^4 cells/well on a poly-D-lysin-coated 96-well plate (Becton Dickinson), and then incubated at 37° C. for another 24 hours.

[2] = biological target: T1, human BG37; test: Bile acid-dependent increase of intracellular cAMP level (HTRF) in cells expressing the human BG37; settings: cells expressing the human BG37 (HEK/hBG37); reagent at various concentrations, 37° C. for 20 minutes
Description: The intracellular cAMP level in the presence of a ligand was measured to determine the increase of the intracellular cAMP level through G proteins bound to the seven-transmembrane receptor.
On the day before the measurement of the intracellular cAMP level, cells were re-plated at a cell density of 4×10^4 cells/well on a poly-D-lysin-coated 96-well plate (Becton Dickinson), and then incubated at 37° C. for another 24 hours. Cells of the stable cell line were rinsed twice with 1 mM 3-Isobutyl-1-Methylxanthine (IBMX) (Nacalai Tesque) containing Opti-MEM solution (GIBCO BRL) (Opti-MEM-BSA-IBMX solution), and then incubated at 37° C. for 20 minutes. After removing the supernatant, Opti-MEM-IBMX solution containing a reagent at various concentrations was added thereto. The resulting mixture was incubated at 37° C. for 20 minutes. Then, the cells were lysed with 0.5% Triton X-100 to determine the level of intracellular cAMP.
Measurement of the intracellular cAMP level was carried out using cyclic AMP kit (HTRF) (Nihon Schering) according to the provided manual.

[3] = tested on: mock-transfected cells which contained the vector alone; test: Intracellular cAMP level (EIA) in mock-transfected cells containing the vector alone (control cells); settings: various concentrations, 37° C. for 15 minutes
Description: Intracellular cAMP levels were determined using the method of Zlokarmik et al. (Science 279, 84 (1998)). The intracellular cAMP level in cells that reacted with the ligand was measured to determine the increase of intracellular cAMP level through G proteins bound to the seven-transmembrane receptor.
On the day before the measurement of the intracellular cAMP level, cells were re-plated at a cell density of 4×10^4 cells/well on a poly-D-lysin-coated 96-well plate (Becton Dickinson), and then incubated at 37° C. for another 24 hours. Cells of the stable cell line were rinsed twice with 0.1% BSA (SIGMA) and 1 mM 3-Isobutyl-1-Methylxanthine containing Opti-MEM solution (GIBCO BRL: Opti-MEM-BSA-IBMX solution) (Nacalai Tesque Inc.: IBMX), and then incubated at 37° C. for 20 minutes. After removing the supernatant, Opti-MEM-BSA-IBMX solution containing at various concentrations a steroid hormone, such as progesterone, was added thereto. The resulting mixture was incubated at 37° C. for 15 minutes. Then, the cells were lysed with Lysis Buffer to measure the level of intracellular cAMP.
The measurement of the intracellular cAMP level was carried out using cyclic AMP enzyme immuno-assay (EIA) system (Amersham Pharmacia Biotech) according to the provided manual.

SMILES	intracellular cAMP level [2]	other results
C[C@]12CCC(=O)C=C1CC[C@@H]1[C@@H]2CC[C@]2(C)C(=O)CC[C@@H]12 [androstenedione]		intracellular cAMP level [1]: increased in a concentration-dependent manner
C[C@H](CCC(=O)O)[C@H]1CC[C@H]2[C@@H]3[C@H](O)C[C@@H]4C[C@H](O)CC[C@]4(C)[C@H]3C[C@H](O)[C@]12C [cholic acid]	elevated	
CC(=O)[C@H]1CC[C@H]2[C@@H]3CCC4=CC(=O)CC[C@]4(C)[C@H]3CC[C@]12C [progesterone]		concentration-dependent increase of intracellular cAMP [3]: not observed
C[C@H](CCC(=O)O)[C@H]1CC[C@H]2[C@@H]3[C@H](O)C[C@@H]4C[C@H](O)CC[C@]4(C)[C@H]3CC[C@]12C [chenodeoxycholic acid]	elevated	
